Assay results from US20200360391A1, “Medicinal Composition for Treating Intractable Heart Disease” (Osaka University, priority 2016, published 2020).
Like-named read-outs stand apart in the source and are kept apart here.

Key:
[1] = tested on: spontaneous dilated cardiomyopathy (J2N-k) hamster model; experiment: Spontaneous dilated cardiomyopathy (J2N-k) hamster model, 8-week administration from 20 weeks of age (Tests 1-3): echocardiography, body weight; settings: for Minimal effective dose (screening 2): mg/kg twice per day, oral preparation
Description: The doses of pharmaceutical products were determined based on the no-observed-adverse-effect levels in a long-term toxicity study using rats. δ-Glycan-deficient spontaneous dilated cardiomyopathy (J2N-k) male hamsters (Japan SLC, Inc.) were delivered at 18 weeks of age. After a 2-week quarantine/acclimation, echocardiography was performed.
Each of the pharmaceutical products (A to K and O) was individually administered twice daily (at an interval of 8 hours or more) by oral gavage, and echocardiography was performed after 4 and 8 weeks (before dissection). Differences from the value before the start of administration (at the time of grouping) (amount of change: Δ) in each group were examined, and the cardiac function (EF value, FS %, etc.) was compared with that in the vehicle group (Group 1). Moreover, the heart was removed […] after the start of administration, and electron microscopy and RNA protein measurement were performed. Specimens for immunopathology were also collected and evaluated.
Each pharmaceutical product was individually suspended in 0.5% CMC-Na (sodium carboxymethylcellulose; Wako Pure Chemical Industries, Ltd.) before use, and administered. […] To Group 1 (control), 0.5% CNC-Na (vehicle) was administered.
Each pharmaceutical product was individually suspended in 0.5% CMC-Na (sodium carboxymethylcellulose; Wako Pure Chemical Industries, Ltd.) before use, and administered. Test substance G was suspended in distilled water before use, and administered.
Reason the doses were set (assuming that the adult body weight was 60 kg, the same amounts as the maximum clinical doses were set) • 1) The clinical dose of C (ozagrel; OZ) was 200 mg twice per day. The dose was thus set to 3.3 mg/kg twice per day. • 2) The clinical dose of D (cilostazol; CS) was 100 mg twice per day. The dose was thus set to 1.7 mg/kg twice per day. • 3) The clinical dose of E (pirfenidone; PF) was 600 mg three times per day, i.e., 1800 mg/day in total. The dose was thus set to 15 mg/kg twice per day. • 4) The clinical dose of G (nintedanib sulfonate; OB) was 150 mg twice per day. The dose was thus set to 2.5 mg/kg twice per day. • 5) The clinical dose of P (carvedilol; CV) was 10 mg twice per day. The dose was thus set to 0.17 mg/kg twice per day. • 6) Preparation 2 (PLGA⋅MS preparation of camostat; B⋅MS): the clinical dose of active substance camostat was 200 mg three times per day, i.e., 600 mg/day in total; thus, intermittent subcutaneous administration at a daily dose of 10 mg/kg once every 4 weeks, twice in total was set. The dose was 1/28 of the total oral dose amount.
The dose volume in oral administration was 5 mL/kg (the amount of liquid to be administered to each animal was calculated based on the most recent body weight), and administered by oral gavage using a polypropylene disposable syringe and a rat stomach tube.
The administration period of each pharmaceutical product was 8 weeks.

rats [2] = settings: rat, in vivo, sc; cited from earlier work
[3] = tested on: rat coronary artery complete ischemia model; experiment: Model of ischemia (MI) by rat coronary artery complete ligation (Tests 1 and 2): echocardiography, body weight; settings: for value of change in E.F. compared with E.F. on Day 1 / value of change in F.S. compared with F.S. on Day 1: B-MS 100, C-MS 50, F-MS 30 mg/kg s.c. single injection
[4] = tested on: mice with ethionine-induced pancreatitis; settings: oral, twice daily; cited from earlier work
rats [5] = experiment: Repeated oral administration toxicity study in rats (dose-setting basis); settings: mg/kg twice per day, oral preparation
Description: The dose-setting basis for the doses of the test substances used in pharmacological tests is as described below.

[6] = cited from earlier work
rats [7] = settings: rats, cited from earlier work
[8] = tested on: mouse model of pulmonary embolism; settings: oral pre-administration, cited from earlier work
[9] = tested on: spontaneous dilated cardiomyopathy (J2N-k) hamster model; experiment: Long-term (36 weeks) administration in J2N-k hamster model: cardiac function, survival rate; assay type: in vivo; settings: 3.0 mg/kg
Description: ONO-1301 and (K) candesartan, which is ARB, were each individually orally administered to a δ-glycan-deficient spontaneous dilated cardiomyopathy (J2N-k) hamster model twice daily repeatedly for 36 weeks, after the onset of pathological condition (20 weeks old); and changes in cardiac function and survival rates in long-term administration were compared for evaluation. Specifically, echocardiographic measurement was performed after the onset of pathological condition (20 weeks old); the animals were grouped evenly based on the ejection fractions (EF values) and the body weights (Table 15), and each test substance was individually administered for 36 weeks.
The test was performed in the same manner as described in the section “1. Investigation of effects in spontaneous dilated cardiomyopathy (J2N-k) hamster model” above.
ONO-1301 was administered at 3 mg/kg twice per day. Candesartan was administered at 3 mg/kg once per day, and only vehicle was administered at the second administration. To the control group, vehicle (0.5% CMC-Na) was administered twice daily.

dogs = settings: 6-month toxicity study in dogs; cited from earlier work
[10] = tested on: spontaneously hypertensive rats (SHR); settings: oral 0.1, 1 and 10 mg/kg for 2 weeks; cited from earlier work
[11] = MI Test 2, 14 Day, B 150, G 5, I 30, C 10 mg/kg p.o. b.i.d., mean ± S.D.
[12] = MI Test 2, 29 Day, B 150, G 5, I 30, C 10 mg/kg p.o. b.i.d., mean ± S.D.
[13] = Test 1, p.o. b.i.d., NOAEL-based dose
[14] = MI Test 1, NOAEL doses, 7 Day, mean ± S.D.
[15] = MI Test 1, NOAEL doses, 14 Day, mean ± S.D.
[16] = MI Test 1, NOAEL doses, 29 Day, mean ± S.D.

## CN(C)C(=O)COC(=O)Cc1ccc(OC(=O)c2ccc(NC(=N)N)cc2)cc1 [Compound B, Camostat mesilate]
[1]; Test 1, p.o. b.i.d.
  LVIDd 4 W: 6.8 mm
  LVIDd 8 W: 7.3 mm
  LVIDs 4 W: 5.6 mm
  LVIDs 8 W: 6.1 mm
[1]; Test 1, p.o. b.i.d., listed as camostat
  LVIDs 8 W: significantly lower
[1]; hamster, in vivo, po
  Body weight 1 W: 114.4 g
  Body weight 2 W: 117.7 g
  Body weight 3 W: 119.0 g
  Body weight 4 W: 121.3 g
  Body weight 5 W: 121.9 g
  Body weight 6 W: 122.2 g
[1]
  Minimal effective dose (screening 2): 5 mg/kg
Rats [2]
  LD50: 1329 mg/kg
[3]; MI Test 2, Day 14 and Day 29
  EF actual measured value and/or amount of change compared with control: significantly higher
[3]; MI Test 2, oral b.i.d. 4 weeks or single subcutaneous administration
  Values of cardiac function (EF, FS %) compared with control: significantly higher
[3]; MI Test 2, 1 Day, B 150, G 5, I 30, C 10 mg/kg p.o. b.i.d., B MS 100, C MS 50, I MS 30 mg/kg s.c. single injection, mean
  Body weight: 243.5 g
[3]; MI Test 2, 7 Day, B 150, G 5, I 30, C 10 mg/kg p.o. b.i.d., B MS 100, C MS 50, I MS 30 mg/kg s.c. single injection, mean
  Body weight: 249.1 g
[3]; MI Test 2, 14 Day, B 150, G 5, I 30, C 10 mg/kg p.o. b.i.d., B MS 100, C MS 50, I MS 30 mg/kg s.c. single injection, mean
  Body weight: 262.4 g
[3]; [11]
  value of change in E.F. compared with E.F. on Day 1: <−4.2 ± 2.5> %
  value of change in F.S. compared with F.S. on Day 1: <−2.3 ± 5.3> %
[3]; MI Test 2, 21 Day, B 150, G 5, I 30, C 10 mg/kg p.o. b.i.d., B MS 100, C MS 50, I MS 30 mg/kg s.c. single injection, mean
  Body weight: 273.9 g
[3]; MI Test 2, 29 Day, B 150, G 5, I 30, C 10 mg/kg p.o. b.i.d., B MS 100, C MS 50, I MS 30 mg/kg s.c. single injection, mean
  Body weight: 293.5 g
[3]; [12]
  value of change in E.F. compared with E.F. on Day 1: <−7.3 ± 4.2> %
  value of change in F.S. compared with F.S. on Day 1: <−3.9 ± 2.2> %
[4]
  Dose suppressing increase in protease activity in the pancreas: 300 mg/kg
Rats [5]
  Maximum no-observed-adverse-effect level (screening 1): 150 mg/kg

## O=C1CCc2cc(OCCCCc3nnnn3C3CCCCC3)ccc2N1 [Compound D, Cilostazol]
[1]; Test 1, p.o. b.i.d.
  LVIDd 4 W: 7.1 mm
  LVIDd 8 W: 7.5 mm
  LVIDs 4 W: 5.9 mm
  LVIDs 8 W: 6.3 mm
[1]; [13]
  Body weight 1 W: 112.6 g
  Body weight 2 W: 114.6 g
  Body weight 3 W: 116.6 g
  Body weight 4 W: 118.0 g
  Body weight 5 W: 118.5 g
[1]; Test 3, clinical dose
  Cardiac function (EF, FS %) actual measured value and/or amount of change compared with control, 8 W value: significant cardiac function improvement effect
  Cardiac function (EF, FS %) actual measured value or change rate compared with control, 4 W value: significant cardiac function improvement effect
[1]; Test 3, clinical dose, summary
  Cardiac function improvement effect: cardiac function improvement effect was observed
[1]
  Minimal effective dose (screening 2): 1.7 mg/kg
[3]; MI Test 1, 28-day repeated oral administration b.i.d., NOAEL-based doses
  Action on left ventricular systolic function: suppression action on the deterioration of left ventricular systolic function
[3]; MI Test 1, Day 7
  Cardiac function test (% FS): actual measured EF value compared with control: significantly higher
  Cardiac function test (% FS): amount of change in the EF value compared with control: not significantly higher
  EF actual measured value compared with control: significantly higher
  EF amount of change compared with control: not significantly higher
[3]; MI Test 1, Day 29
  Cardiac function test (% FS): amount of change compared with control: significantly higher
[3]; MI Test 1, NOAEL doses, 1 Day (grouping), mean ± S.D.
  Body weight: 232.4 ± 4.9 g
[3]; [14]
  % FS: value of change compared with the value on Day 1: -1%
  EF: value of change compared with the value on Day 1: -1%
[3]; [15]
  % FS: value of change compared with the value on Day 1: -2%
  EF: value of change compared with the value on Day 1: -3%
[3]; [16]
  % FS: value of change compared with the value on Day 1: -5%
  EF: value of change compared with the value on Day 1: -9%
[6]; human, in vivo
  Diarrhea cases: 0.3%
  Dizziness: 0.5%
  Headache (headache/heavy-headedness) cases: 3.4%
  Nausea cases (cilostazol: nausea/vomiting): 0.3%
  Palpitations cases: 0.7%
[6]; share of cases evaluated for safety
  Cases with side effects (including laboratory test value abnormality): 6.3%
Rats [7]; 13 weeks / 3 months
  No-observed-adverse-effect level: 30 mg/kg
Rats [5]
  Maximum no-observed-adverse-effect level (screening 1): 30 mg/kg
[8]; ADP-induced model
  Dose significantly inhibiting pulmonary embolus death: 30 mg/kg
[8]; collagen-induced model
  Dose significantly inhibiting pulmonary embolus death: 10 mg/kg

## CCOc1nc2cccc(C(=O)OC(C)OC(=O)OC3CCCCC3)c2n1Cc1ccc(-c2ccccc2-c2nn[nH]n2)cc1 (stereo not drawn) [candesartan, Candesartan cilexetil]
[9]
  EF compared with control group: no longer significant in Week 30 and Week 36
  FS% compared with control group: no longer significant in Week 36
  Survival rate: rapid decrease in the survival rate was observed from 29 weeks
Rats [7]; 6 months
  No-observed-adverse-effect level: 10 mg/kg
dogs
  No-observed-adverse-effect level: 20 mg/kg
[10]
  Blood pressure: reduced blood pressure
  Plasma renin concentration: increased the plasma renin concentration in a dose-dependent manner
